Test results: US12465659B2, “Iron(III) complexes having new contrast agent properties, for magnetic resonance imaging” (CHARITÉ—UNIVERSITÄTSMEDIZIN BERLIN, priority 2019, dated 2025)

Experiments:
[1] = excretion route of the iron complex; settings: in vivo
[2] = T1-relaxivity measurements at different magnetic field strengths in water and foetal bovine serum; format: physicochemical
Experimental: For the subsequent T1-relaxivity measurements which were carried out, ultra-pure water and foetal bovine serum (FBS, pH 7.7) were used as the solvent for the metallic complexes. The relaxivity measurements at different magnetic field strengths were carried out on the following instruments: 0.94 T with a NMR relaxometer (Bruker Minispec mq 40, Germany), 1.5 T with a SIEMENS MAGNETOM Sonata MRI, 3 T with a SIEMENS MAGNETOM Lumina MRI and 7 T with a Bruker Pharmascan Kleintier-MRI.

[3] = pH dependency of T1- and T2-relaxivity in water (0.94 T NMR relaxometer); format: physicochemical; settings: pH<6
Source text: At pH<6, a maximum T1-relaxivity of 1.7 l·mmol^−1·s^−1 or T2-relaxivity of 1.9 l·mmol^−1·s^−1 was reached.

excretion route [1] | T1-relaxivity (r1) per metal ion ([2]; 0.94 T, 37° C., FBS (pH 7.7)) [L/mmol/s] | T1-relaxivity per molecule ([2]; 0.94 T, 37° C., FBS (pH 7.7)) [L/mmol/s] | T1-relaxivity (r1) per metal ion ([2]; 0.94 T, 37° C., water) [L/mmol/s] | T1-relaxivity per molecule ([2]; 0.94 T, 37° C., water) [L/mmol/s] | T1-relaxivity (r1) per metal ion ([2]; 1.5 T, 23° C., FBS (pH 7.7)) [L/mmol/s] | T1-relaxivity per molecule ([2]; 1.5 T, 23° C., FBS (pH 7.7)) [L/mmol/s] | T1-relaxivity (r1) per metal ion ([2]; 1.5 T, 23° C., water) [L/mmol/s] | T1-relaxivity per molecule ([2]; 1.5 T, 23° C., water) [L/mmol/s] | T1-relaxivity (r1) per metal ion ([2]; 3.0 T, 37° C., FBS (pH 7.7)) [L/mmol/s] | T1-relaxivity per molecule ([2]; 3.0 T, 37° C., FBS (pH 7.7)) [L/mmol/s] | T1-relaxivity (r1) per metal ion ([2]; 3.0 T, 37° C., water) [L/mmol/s] | T1-relaxivity per molecule ([2]; 3.0 T, 37° C., water) [L/mmol/s] | T1-relaxivity (r1) per metal ion ([2]; 7.0 T, 37° C., FBS (pH 7.7)) [L/mmol/s] | T1-relaxivity per molecule ([2]; 7.0 T, 37° C., FBS (pH 7.7)) [L/mmol/s] | T1-relaxivity (r1) per metal ion ([2]; 7.0 T, 37° C., water) [L/mmol/s] | T1-relaxivity per molecule ([2]; 7.0 T, 37° C., water) [L/mmol/s] | maximum T1-relaxivity [3] [L/mmol/s] | maximum T2-relaxivity [3] [L/mmol/s] | SMILES
liver excretion | 2.18 | 4.36 | 1.99 | 3.98 | 3.26 | 6.52 | 2.75 | 5.5 | 3.39 | 6.78 | 2.99 | 5.98 | 3.23 | 6.46 | 2.65 | 5.3 |  |  | O=C(O)CN(CC(=O)O)[C@@H]1CCCC[C@H]1N(CC(=O)O)CC(=O)N[C@H]1CC[C@H](NC(=O)CN(CC(=O)O)[C@@H]2CCCC[C@H]2N(CC(=O)O)CC(=O)O)CC1 [(1-2)]
 |  |  |  |  |  |  |  |  |  |  |  |  |  |  |  |  | 1.7 | 1.9 | NCCNC(=O)CN(CC(=O)O)[C@@H]1CCCC[C@H]1N(CC(=O)O)CC(=O)O [(2-1)]
 | 2.01 |  | 1.92 |  | 2.74 |  | 2.27 |  | 3.06 |  | 2.64 |  | 2.61 |  | 2.38 |  |  |  | N[C@H]1CC[C@H](NC(=O)CN(CC(=O)O)[C@@H]2CCCC[C@H]2N(CC(=O)O)CC(=O)O)CC1 [(2-2)]
